Assay results published in US6706754B2, “Reversed amidines and methods of using for treating, preventing, or inhibiting leishmaniasis” (The United States of America as represented by the …, priority 2000, dated 2004).

Legend:
[1] = system: L. donovani infected macrophages; assay: Infected macrophage assay, L. donovani; type: cell-based; conditions: for Macrophage IC50 L. donovani: J774.G8 mouse macrophages, 72 hours, 37° C., number of infected macrophages inhibited by 50%
Text: A one week old, confluent culture of J774.G8 mouse macrophages was washed three times with Hank's Balanced Salt Solution (HBSS) without calcium and magnesium (Sigma, St. Louis, Mo.). The J774.G8 mouse macrophages are a continuous cell line that have been cited in the literature as supporting continuous and intracellular growth of various Leishmania sp. and they have been used for drug assays against intracellular parasites, Trypanosoma cruzi and Leishmania sp. See Alcina, A., et al. (1988) Antimicrobial Agents & Chemotherapy. 32(9):1412-5; Mendez, S., et al. (1996) International Journal for Parasitology 26(6):619-22; Hodgkinson, V. H., et al. (1996) Experimental Parasitology 83(1):94-105; and Chang, K. P. (1980) Science 209(4462): 1240-42, which are herein incorporated by reference.
The macrophages were then incubated at 37° C. in a humidified 5% CO2 incubator for 15 minutes with a Trypsin-EDTA (0.05% Trypsin, 0.53 mM EDTA 4Na) solution (GIBCO BRL, Grand Island, N.Y.). The macrophages were then detached with a cell scraper and suspended by vigorous pipetting. The macrophages were then mixed with a late log phase culture of L. mexicana promastigotes to yield a solution comprising about 5×10^5 macrophages per ml and about 25×10^5 promastigotes per ml in DMEM (pH 7.4) supplemented with 10% heat inactivated fetal calf serum comprising penicillin (50 units/ml) and streptomycin (50 μg/ml).
The macrophage-parasite mixture was then pipetted into 96-well flat-bottom plates (Costar, Cambridge, Mass.) at 200 μl per well. Infection and attachment of the macrophages was allowed to occur over a period of about 48 hours at 33° C. in a humidified 5% CO2 incubator. The wells were washed three times with HBSS to remove extracellular parasites. Each well was then treated with serial dilutions of a given candidate compound in DMEM.
The treated plate was incubated for about 72 hours at 33° C. in a humidified 5% CO2 incubator. The macrophages in each well were detached into the DMEM used for the incubation by pipetting and scraping with the tip of a microliter pipettor. 75 μl of the cell suspension was transferred to a cytospin funnel and the cells were centrifuged onto microscope slides at 800 rpm for 5 minutes using a Cytospin centrifuge (Shandon, Pittsburgh, Pa.).
The slides were air dried and then fixed in methanol for 5 seconds. After the methanol evaporated, the slides were stained with 5% Giemsa stain (Fisher, Suwanee, Ga.) in phosphate buffer comprising 3.1 mM potassium phosphate dibasic and 8.3 mM sodium phosphate monobasic for 45 minutes. After thorough washing with flowing tap water, the slides were air dried and then viewed by oil immersion microscopy to determine percentage of infected cells. A cell was considered to be infected if it comprised one or more amastigote with a visible parasite nucleus and kinetoplast. Counting parasites and counting infected cells provided similar results when determining IC50 values.
The IC50 values (the concentration of the compound that inhibited the number of infected macrophages by 50%) were determined with the software program TableCurve (SPSS Science, Chicago, Ill.) using the following dose-response equation: y=a+b/(1+(x/c)^d), where x=the drug concentration, y=absorbance at 490 nm, a=upper asymptote, b=slope, c=IC50 and d=lower asymptote. FIG. 3 provides the graphical data obtained for compound 1DWB667 as an example.
The susceptibility of L. donovani infected macrophages to the compounds of the present invention were preformed by a modified protocol for L. mexicana infected macrophages above, wherein all incubations of the parasite infected macrophages were done at 37° C. rather than 33° C. FIG. 4 provides the graphical data for compound 1DWB667 as an example.

[2] = system: J774.G8 macrophages; assay: Macrophage toxicity assay (sulforhodamine B); type: cell-based, mouse; conditions: for IC50 (macrophage toxicity): 72 hours, 37° C., macrophage growth inhibited by 50%; for toxicity to the macrophage (in words): in vitro
Experimental: The toxicity of the candidate compounds on J774.G8 macrophages was measured using a sulforhodamine B (Molecular Probes, Eugene, Oreg.) based dye assay.
Specifically, a confluent culture of macrophages in a T75 culture flask was harvested by replacing the growth medium (DMEM supplemented with 10% heat inactivated fetal calf serum, 50 units/ml penicillin, and 50 μg/ml streptomycin) with 25 ml of fresh medium and scraping the cells from the bottom of the culture flask. Cell clumps were broken up by gentle pipetting and the cell suspension was transferred to a 50 ml conical centrifuge tube. The cells were then pelleted by centrifugation at 1,000 rpm at 4° C. for 5 minutes. The supernatant was then removed and the cells were resuspended in 15 ml DMEM.
After counting an aliquot of the cell suspension, the macrophages were then diluted to about 1×10^5 cells/ml in DMEM and 180 μl was added to each well of a 96 well tissue culture plate Then 20 μl serial dilutions of a given candidate compound was added. The plate was then placed in a 37° C. humidified 5% CO2 incubator and incubated for 72 hours. Then 50 μl of 50% TCA was added to each well to fix the proteins. The plate was then incubated for at least 1 hour at 4° C.
The liquid contents of the wells were discarded and the wells were washed five times with 200 μl of distilled water. After the final wash the plate was allowed to air dry for 20 minutes. 100 μl of the sulforhodamine B dye (0.4% dye in 1% acetic acid) was added. The plate was then incubated at room temperature for 20 minutes. After discarding the dye solution, the wells were washed five times with 200 μl of 1% acetic acid and then allowed to air dry for 20 minutes. At this time, 50 μl of 10 mM TRIS base was added. After a few minutes of incubation, the absorbance of each well at 490 nm was measured in a SpectraMax Pro microplate reader (Molecular Devices, Sunnyvale, Calif.).
The IC50 values for each candidate compound (the concentration of the agent that inhibited macrophage growth by 50%) were determined for the macrophages with the aid of the program SoftMax Pro (Molecular Devices, Sunnyvale, Calif.) using the following dose response equation: y=((a−d)/1+(x/c)^b)+d, where x=drug concentration; y=absorbance at 490 nm; a=upper asymptote; b=slope; c=IC50; and d=lower asymptote. FIG. 5 provides the graphical data for compound 1DWB667 as an example.

[3] = system: L. donovani L82; assay: In vivo assay, murine visceral model of leishmaniasis; set-up: species or system Leishmania donovani; conditions: Table 4; BALB/c mice; 15 μmol/kg i.v. × 5

| Substance | Macrophage IC50 L. donovani [1] [µg/mL] | Macrophage IC50 L. donovani ([1]; listed as DB702) | IC50 (macrophage toxicity) [2] [µg/mL] | toxicity to the macrophage (in words) [2] | reduction of parasite burden in L. donovani infected macrophages (in words) ([1]; in vitro, visceral strain) | % inhibition ± S.E.M. [3] [%] | Macrophage IC50 L. donovani ([1]; listed as 1DWB667) |
| --- | --- | --- | --- | --- | --- | --- | --- |
| 2,5-Bis[2-methyl-4-(2-pyridylimino)aminophenyl]furan [DB 702] | 0.063 | about 0.1 μg/ml | 2.23 |  |  |  |  |
| 2,5-Bis[2-methyl-4-(5-methyl-2-pyridylimino)aminophenyl]furan [DB 710] | 0.530 |  | 3.64 | about less than or equal to DB 702 and 1DWB667 |  |  |  |
| 2,5-Bis[2-chloro-4-(2-pyridylimino)aminophenyl]furan [DB 712] | 0.127 |  | 3.39 | about less than or equal to DB 702 and 1DWB667 | least effective in reducing parasite burden | 15.33 ± 2.7 |  |
| 2,5-Bis[4-(2-pyridylimino)aminophenyl]furan [1DWB 667] | 0.942 |  | 4.28 |  |  |  | about 1.4 μg/ml |
| 2,5-Bis[2-methoxy-4-(2-pyridylimino)aminophenyl]furan [DB 709] | 0.104 |  | 0.199 | toxic to the macrophage in vitro within the same range of toxicity to the amastigote within the macrophage |  |  |  |
